Test system: R439H Tph2 knock-in mice
Assay: Tail suspension test after drug administration
Format: in vivo, mouse
Settings: HO Tph2 knock-in mice; 30 min following administration; fluoxetine 5 mg/kg, TDZD 10 mg/kg (i.p.); vs vehicle (FIG. 7)
Description: Tail suspension test: Mice were tested in a tail suspension apparatus (Med-Associates, St. Albans, Vt.) as described (Crowley et al., 2004, Pharmacol. Biochem. Behav. 78:269-274). All mice were weighed and tail-marked 24 hrs before testing. Animals were brought into the testing room 4 hrs before injections. Pilot studies were used to determine the optimal automated threshold settings for immobility by comparing scores rated manually with scores tabulated simultaneously by the apparatus. Behavior was scored as time spent in immobility (sec) for the total period of the test.
Administration of anti-depressants or glycogen synthase kinase 3 inhibitors alleviates behavioral differences. Fluoxetine (Tocris Cookson Inc., Ellisville, Mo.) was dissolved in distilled water. Thiadiazolidinone (TDZD) (Calbiochem, Cambridge, Mass.) was injected (i.p.) following suspension in a minimal amount of Tween and diluted to volume with distilled water as previously described (Beaulieu et al., 2004, Proc. Natl Acad. Sci. USA 101:5099-5104). Corresponding vehicle solutions were injected in control animals. Mice were treated with vehicle or drug 30 min before testing. Behavioral testing was performed as described above.

Row | Structure (SMILES) | immobility times in the tail suspension test
1 | Cn1sc(=O)n(Cc2ccccc2)c1=O [TDZD, thiadiazolidinone] | comparable reduction of immobility times
2 | CNCCC(Oc1ccc(C(F)(F)F)cc1)c1ccccc1 (centres unmarked) [fluoxetine] | comparable reduction of immobility times

— patent US8124831B2, “Transgenic mice carrying functional single nucleotide polymorphisms in brain-specific tryptophan hydroxylase” (Duke University, priority 2006, dated 2012)
